From patent publication US20210386705A1, “APPLICATION OF CHIGLITAZAR AND RELATED COMPOUNDS THEREOF” (SHENZHEN CHIPSCREEN BIOSCIENCES CO., LTD., priority 2018, published 2021) come the findings set out here.

The target of experiment [1] is T1, PPARα (Homo sapiens, UniProt Q07869).
T1 construct: expressed in transfected cells; host or cells: human hepatocyte cell line L-02
T1 sequence (Q07869 1-468): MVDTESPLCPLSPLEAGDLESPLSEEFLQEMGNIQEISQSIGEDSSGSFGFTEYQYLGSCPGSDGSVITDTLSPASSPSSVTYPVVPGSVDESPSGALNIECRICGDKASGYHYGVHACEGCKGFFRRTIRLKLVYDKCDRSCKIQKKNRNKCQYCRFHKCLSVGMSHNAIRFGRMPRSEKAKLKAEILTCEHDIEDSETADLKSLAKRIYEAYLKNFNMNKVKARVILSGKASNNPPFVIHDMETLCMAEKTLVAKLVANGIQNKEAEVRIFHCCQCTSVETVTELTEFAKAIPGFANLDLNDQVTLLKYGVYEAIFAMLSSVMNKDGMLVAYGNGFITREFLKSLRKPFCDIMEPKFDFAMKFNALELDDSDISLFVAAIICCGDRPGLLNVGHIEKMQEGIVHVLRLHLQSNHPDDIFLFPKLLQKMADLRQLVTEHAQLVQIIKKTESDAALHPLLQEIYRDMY
Briefly: PPAR reporter gene model in L-02 cells, PPARα. The format is cell-based. To be noted: luciferase reporter, 24 hours drug, read-out: Half-maximal activation concentration of reporter gene AC50, PPARα. The method, then: The PPAR reporter gene model comprises three subtypes of expression plasmids, RXR expression plasmid, plasmid with luciferase reporter gene, and GFP expression plasmid as an external reference. The human hepatocyte cell line L-02 cells were seeded into 96-well plates at the density of 15,000 cells/well with about 50% plating rate, followed by culturing for 24 hours at 37° C. […] The fluorescence intensity (at wavelength 485-527 nm) of green fluorescent protein (GFP) in each well was firstly detected as an internal standard by a fluorescence detector, and then 30 μL of luciferase substrates (Promega, E151A) were added to each well. After slightly shaking to mix well, the […] were detected. The relative reporter gene activation intensity was obtained by the ratio of the fluorescence detection signal of the drugs to be tested to that of the solvent control, with both the signals normalized to the internal standard GFP signal. The half-maximal activation (AC50) of the drugs to be tested was calculated with the activity at various concentrations (shown in Table 1).

The subject of experiment [2] is CCl4-induced liver fibrosis. Briefly: Mouse model of carbon tetrachloride induced liver fibrosis. The format is in vivo, BALB/c mice. To be noted: 40, 20 and 10 mg/kg intragastrically, from the fourth week to the 7th week. The method, then: BALB/c mice were injected intraperitoneally with 25% CCl4 (4 mL/kg body weight) twice a week, which can cause liver damage and chronic liver fibrosis in 3 weeks. The model animals were administered for 6 weeks continuously, and the non-model control group was administered the solvent control olive oil for the same period. Model animals were randomly divided into groups from the third week. The control group was administered solvent (0.2% sodium methylcellulose) intragastrically from the fourth week, and the sodium chiglitazar at high, medium and low dose groups were administered 40, 20, and 10 mg/kg body weight of the active ingredient sodium chiglitazar intragastrically, respectively (Table 4), until the end of the experiment in the 7th week. […]
The liver tissue sections were stained with Picrosirius Red for morphological observation (FIG. 9), and measured by using a semi-automatic digital image analysis system and the measurement software (OsteoMetrics, Inc.). The pathologist single-blindly tested and hand-drew the entire sections, and then measured the fibrosis area on the entire sections in straight lines. The software automatically calculated the total area of the measurement. […]

Experiment [3] relates to primary human hepatic stellate cells. In words: PDGF-BB stimulated proliferation of hepatic stellate cells (EdU and MTT assay). Type of experiment: cell-based. To be noted: EdU 24 hours, MTT 72 hours, FIGS. 1-2. Here is the method:
Primary human hepatic stellate cells (HSC) purchased from Sciencell Research Laboratories, Inc. were seeded into 96-well plates with complete growth media (Stellate Cell Medium) for 24 hours, followed by culturing overnight in culture media free of serum and growth factors, and then the culture media were replaced by fresh media containing platelet-derived growth factor (PDGF-BB) and the compounds to be tested (chiglitazar sodium or the reference compound PPARγ/α dual agonist pioglitazone purchased from Selleck Chemicals LLC) at various concentrations, and the cells were cultured for 24 hours. When the cells were treated with the compounds for the last 17 hours, EdU (5-ethynyl-2′-deoxyuridine) was added to the cells. Finally, the culture media were removed and the cells were fixed with formaldehyde. The amount of the EdU incorporated into the DNA of the cells was quantified by fluorescent Click-it EdU assay according to the manufacturer's instructions (Beyotime). […] The inhibition of cell proliferation by the compounds was determined by comparing the EdU incorporated value of the control group (FIG. 1). […]

As for `O=C(c1ccc(F)cc1)c1ccccc1N[C@@H](Cc1ccc(OCCn2c3ccccc3c3ccccc32)cc1)C(=O)[O-].[Na+]` [sodium chiglitazar], the AC50 in experiment [1] came out at 1.1 µM. Also, the “Inflammatory activity of liver tissues (Metavir score, H&E staining)” value in experiment [2] (FIGS. 7-8) is given as “partially inhibit”. The “Fibrosis degree of liver tissues (fibrosis area %, Picrosirius Red)” value in experiment [2] (FIGS. 9-10) is given as “partially inhibit”. The “Inhibition of in vitro proliferation of liver-derived fibroblasts” value in experiment [3] was “had inhibitory activity”.
